{"source": "patent US8460867B2", "about": "“Methods of treating psychosis and schizophrenia based on polymorphisms in the CNTF gene” (Novartis AG, priority 2001, dated 2013)", "molecules": {"B1": {"name": "CNTF: Ciliary Neurotrophic Factor, survival factor for neuronal cell types, member of the interleukin-6 cytokine family (protein, UniProt P26441 1-200, looked up)", "Ciliary neurotrophic factor": "MAFTEHSPLTPHRRDLCSRSIWLARKIRSDLTALTESYVKHQGLNKNINLDSADGMPVASTDQWSELTEAERLQENLQAYRTFHVLLARLLEDQQVHFTPTEGDFHQAIHTLLLQVAAFAYQIEELMILLEYKIPRNEADGMPINVGDGGLFEKKLWGLKVLQELSQWTVRSIHDLRFISSHQTGIPARGSHYIANNKKM"}}, "key": {"ob/ob mice": {"system": "ob/ob mice", "conditions": "systemic administration; cited from earlier work"}, "schizophrenic patients": {"system": "schizophrenic patients", "test": "Clinical trial of Iloperidone in schizophrenic patients, pharmacogenetic analysis by CNTF 103 G>A genotype", "format": "in vivo, human", "description": "In an effort to identify genetic factors that may associate with treatment response to Iloperidone, the relationship between a polymorphism in the CNTF (ciliary neurotrophic factor) gene (located on 11q12.2, the polymorphism being 103 G>A in GenBank sequence X55890 (Version 1), see PubMed: 9285965) and the clinical response to the antipsychotic Iloperidone in a clinical trial was investigated. This trial was a randomized, double-blind, placebo- and risperidone-controlled, multicenter study to evaluate the efficacy and safety of two non-overlapping dose ranges of lloperidone (12 or 16 mg/d and 20 or 24 mg/d and risperidone (6 or 8 mg/d) compared with placebo, given twice-daily (b.i.d) for 42 days to schizophrenic patients followed by a long-term treatment phase with lloperidone given once daily (q.d) at doses of 4, 8, 12, 16, or 24 mg/d for 46 weeks to patients with schizophrenia.\nPharmacogenetic analysis for candidate gene polymorphisms was conducted in Phase II of the clinical trial. It was determined whether the CNTF (ciliary neurotrophic factor) 103 G>A polymorphism (GenBank sequence X55890 (Version 1)) 103 G>A, (expressed protein alteration FS63 TER) was associated with any of the clinical parameters of efficacy studied in the course of the clinical trial and specifically changes in the BPRSA, Total PANNS, Positive PANNS, Negative PANNS and General PANNS scales.\nA total of 207 unique blood samples were collected from the patients at the trial sites. The DNA was extracted by Covance (Geneva) using the PUREGENE™ DNA Isolation Kit (D-50K). The CNTF 103 G>A polymorphism (GenBank sequence X55890 (Version 1)) polymorphism was described by Takahashi, see, Takahashi et al. Nature Genet. 7: 79-84, 1994.\nThe probe sets for genotyping were designed and synthesized by Third Wave Technologies, Inc (Madison, Wis.). […]"}, "[1]": {"system": "mice with diet-induced obesity", "conditions": "partially resistant to leptin; cited from earlier work"}, "pmn/pmn mice": {"system": "pmn/pmn mice", "conditions": "also when degenerative alterations were already present; cited from earlier work"}, "db/db mice": {"system": "db/db mice", "conditions": "which lack a functional leptin receptor; cited from earlier work"}}}
{"molecule": "LEP: leptin (LEP) cytokine", "values": [{"measurement": "induction of the tis-11 primary response gene in the arcuate nucleus", "setting": "ob/ob mice", "value": "rapid induction"}]}
{"molecule": "COc1cc(C(C)=O)ccc1OCCCN1CCC(c2noc3cc(F)ccc23)CC1", "note": "[Iloperidone]", "values": [{"measurement": "association of Total PANSS and BPRSA with the CNTF 103 G>A polymorphism", "setting": "schizophrenic patients; 12-16 mg dose (Group A), analysis of variance within treatments, p<0.001", "value": "significantly associated"}, {"measurement": "response of the GG type versus the placebo", "setting": "schizophrenic patients; 12-16 mg treatment group, GG type of the CNTF gene, p<0.001", "value": "highly significant"}, {"measurement": "treatment response (BPRSA and Total PANNS scales), GG type versus non-GG type of the CNTF gene", "setting": "schizophrenic patients; 12-16 mg treatment group, schizophrenic patients, 42 days b.i.d.", "value": "responded significantly better than the non-GG type"}]}
{"molecule": "B1", "values": [{"measurement": "obesity-related phenotypes", "setting": "[1]", "value": "reduced obesity-related phenotypes"}, {"measurement": "motor function and morphologic symptoms of neural degeneration", "setting": "pmn/pmn mice", "value": "successfully improved motor function and reduced the morphologic symptoms of neural degeneration"}, {"measurement": "induction of the tis-11 primary response gene in the arcuate nucleus", "setting": "ob/ob mice", "value": "rapid induction"}, {"measurement": "obesity-related phenotypes", "setting": "db/db mice", "value": "reduced obesity-related phenotypes"}]}
